Results as given in paper PMC5025259 (ACS infectious diseases, 2016).

Columns and labels:
[1] = system: bloodstream form (BSF) CA427 trypanosomes; conditions: read-out: GI50 (concentration of drug that inhibits growth by 50%); trypanosome proliferation; cited from earlier work
[2] = system: transferrin (Tf) endocytosis in bloodstream T. brucei; type: cell-based, Trypanosoma brucei; conditions: Figure S1
[3] = system: BSA endocytosis in bloodstream T. brucei; assay: Endocytosis assay: BSA-A647 uptake by bloodstream trypanosomes; type: cell-based, Trypanosoma brucei; conditions: bulk-phase uptake
[4] = target: T1, rTbGSK3β (Trypanosoma brucei brucei, UniProt Q388M1); assay: biochemical
T1 sequence (Q388M1 1-352): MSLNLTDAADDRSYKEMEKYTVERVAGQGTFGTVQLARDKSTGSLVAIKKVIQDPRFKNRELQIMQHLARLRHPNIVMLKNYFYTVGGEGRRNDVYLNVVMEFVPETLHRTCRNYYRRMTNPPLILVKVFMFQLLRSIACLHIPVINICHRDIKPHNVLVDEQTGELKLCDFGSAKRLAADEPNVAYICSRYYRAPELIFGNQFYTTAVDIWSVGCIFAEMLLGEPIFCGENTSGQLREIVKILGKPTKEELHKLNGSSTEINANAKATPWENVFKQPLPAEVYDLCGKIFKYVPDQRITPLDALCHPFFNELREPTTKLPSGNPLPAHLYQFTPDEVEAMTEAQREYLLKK

[5] = system: transferrin (Tf) endocytosis in bloodstream T. brucei; conditions: cited from earlier work
[6] = system: bloodstream form (BSF) CA427 trypanosomes; assay: Proliferation inhibition assay; type: cell-based, Trypanosoma brucei; conditions: axenic cultures of bloodstream trypanosomes, 48 h
[7] = system: Tf endocytosis in HeLa cells; assay: HeLa cell endocytosis of transferrin; type: cell-based, human; conditions: each compound 10 μM, Tf-Alexa488 5 μg/mL, 15 min at 37 °C
[8] = system: Tf endocytosis in TbGSK3β overexpression trypanosomes; assay: Tf endocytosis in trypanosomes overexpressing TbGSK3β; type: cell-based, Trypanosoma brucei; conditions: clone 1, TWS119 10 μM, 3 h induction
[9] = system: Hp-Hb endocytosis in bloodstream T. brucei; assay: Endocytosis assay: Hp-Hb-A488 uptake by bloodstream trypanosomes; type: cell-based, Trypanosoma brucei; conditions: Hp-Hb 38 nM

SMILES	Effect on BSA endocytosis [3]	T. brucei GL50 [6]	Effect on Tf endocytosis in HeLa cells [7]	other results
C[C@@H](Nc1ncnc2[nH]c(-c3ccc(O)cc3)cc12)c1ccccc1 [PKI-166]	did not inhibit	–	–	GI50 [1]: 5 µM; Effect on Tf endocytosis [2]: did not inhibit; IC50 [4]: > 20 µM
CS(=O)(=O)CCNCc1ccc(-c2ccc3ncnc(Nc4ccc(OCc5cccc(F)c5)c(Cl)c4)c3c2)o1 [Lapatinib]	–	–	–	Effect on Tf endocytosis in T. brucei ([5]; ref Guyett, P.J., et al., manuscript submitted): blocks
CNC(=O)c1cc(Oc2ccc(NC(=O)Nc3ccc(Cl)c(C(F)(F)F)c3)cc2)ccn1 [Sorafenib]	–	3.1 µM	–	–
O=C1Nc2ccc3ncsc3c2/C1=C/Nc1ccc(S(=O)(=O)Nc2ccccn2)cc1 [GW8510]	decreased	0.12 µM	Neither TbGSK3β inhibitor affected	–
Cc1cc(Nc2cc(CN3CCOCC3)c3nc(C)c(Cc4ccc(Cl)cc4F)n3n2)n[nH]1 [LY2784544]	–	1.0 µM	–	IC50 [4]: 0.6 ± 0.2 µM
O=S(=O)(NCCNC/C=C/c1ccc(Br)cc1)c1cccc2cnccc12 [H-89]	–	–	decreased	–
Nc1cccc(-c2cc3c(Oc4cccc(O)c4)ncnc3[nH]2)c1 [TWS119]	did not decrease	1.1 µM	Neither TbGSK3β inhibitor affected	Reduction of Tf endocytosis driven by TbGSK3β overexpression [8]: 300%; Effect on Hp-Hb endocytosis [9]: did not decrease
N#C/C(=C\c1ccc(O)c(O)c1)C(N)=S [tyrphostin-A47]	–	–	–	Effect on Tf endocytosis in the parasite [5]: blocks
